Reference: paper PMC10494966 (RSC Advances, 2023)

The molecules below were run against T1, Pancreatic lipase (Sus scrofa, UniProt P00591) (assay: spectrophotometric p-nitrophenyl palmitate hydrolysis, single concentration […]).
T1 sequence (P00591 1-450): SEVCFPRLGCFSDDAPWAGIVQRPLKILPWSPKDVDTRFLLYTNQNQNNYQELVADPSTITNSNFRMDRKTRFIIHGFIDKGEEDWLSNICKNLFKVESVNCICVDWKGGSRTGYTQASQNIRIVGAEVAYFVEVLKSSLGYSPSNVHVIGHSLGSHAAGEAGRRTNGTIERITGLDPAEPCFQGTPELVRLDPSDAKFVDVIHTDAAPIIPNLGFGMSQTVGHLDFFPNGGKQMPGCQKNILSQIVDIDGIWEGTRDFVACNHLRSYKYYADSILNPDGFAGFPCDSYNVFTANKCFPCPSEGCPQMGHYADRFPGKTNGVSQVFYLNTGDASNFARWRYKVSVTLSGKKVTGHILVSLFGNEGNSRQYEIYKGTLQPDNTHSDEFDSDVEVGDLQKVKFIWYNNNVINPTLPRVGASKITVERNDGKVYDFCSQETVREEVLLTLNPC
Format: biochemical

inhibition at 250 µM | Compound
72% | COc1cc2cc(Oc3ccc4ccc(=O)oc4c3)c(=O)oc2cc1O [compound 1, daphnoretin]
52% | COC(=O)c1c(O)cc(O)c2c1OC(c1ccc(O)cc1)C(O)C2 (stereo not shown) [compound 2, 5,7,4′-trihydroxy-8-methoxycarbonyl flavanol]
61.8% | O=C1c2c(O)cc(O)cc2O[C@H](c2ccc(O)cc2)[C@@H]1[C@@H]1C(=O)c2c(O)cc(O)cc2O[C@@H]1c1ccc(O)cc1 [compound 3, neochamaejasmin A]
68% | C[C@@H]1O[C@@H](OC[C@H]2O[C@@H](Oc3c(-c4ccc(O)c(O)c4)oc4cc(O)cc(O)c4c3=O)[C@H](O[C@@H]3O[C@@H](C)[C@H](O)[C@@H](O)[C@H]3O)[C@@H](O)[C@H]2O)[C@H](O)[C@H](O)[C@H]1O [compound 7, quercetin 3-O-α-L-rhamnopyranosyl-(1 → 2)-[α-L-rhamnopyranosyl-(1 → 6)]-β-D-galactopyranoside]
